The values below come from ChEMBL document CHEMBL1201862, “PubChem BioAssay data set” (2004).

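How tested: cells in 96-well plates exposed to compound for 48 hours at five concentrations. GI50 marks 50% less growth.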 Active and inactive are the calls of the source. Rule as the data show it: active = GI50 up to about 1.1 µM and inactive = higher. Where only a bound is given, the exact number is not on record here.

Assay in all cases: inhibition of tumour cell growth, NCI panel, 48 h
Assay [1] concerns 786-0.
Assay [2] has as its system A549.
Assay [3] deals with CCRF-CEM.
Assay [4] has as its system COLO 205.
Assay [5] has as its system MOLT-4.
Assay [6] concerns Malme-3M.
For assay [7], the system named is NCI-H23.
Assay [8] deals with NCI-H460.
Assay [9] has as its system NCI-H522.
The test system of assay [10] is OVCAR-3.
In assay [11] the test system is OVCAR-4.
For assay [12], the system named is OVCAR-8.
For assay [13], the system named is TK-10.
For assay [14], the system named is U-251.
Assay [15] concerns UO-31.
In assay [16] the test system is SK-MEL-2.

For the compound `N#CC(C#N)=C(C(C#N)C#N)C(C#N)C#N`, the GI50 in assay [1], in assay [2], in assay [3], in [4], in [5] and in assay [6] was > 100 µM (inactive) each time. The GI50 in [7], in assay [8], in assay [9], in assay [10], in assay [11] and in assay [12] was > 100 µM (inactive) throughout. Further, the GI50 in assay [13], in assay [14] and in assay [15] was > 100 µM (inactive) each time.
Turning to `Cc1ccccc1C(C#N)C(=O)C(=O)Nc1nc([N+](=O)[O-])cs1` (stereo not given), the GI50 in assay [1], in assay [2], in [6], in [7], in assay [8] and in assay [9] was > 100 µM (inactive) in each case. In addition, the GI50 in [10], in assay [11], in assay [12], in assay [13], in assay [14] and in assay [15] was > 100 µM (inactive) each time.
As to `CC1=CCCC(OC(N)=O)C1` (stereo not given), the GI50 in assay [1], in [2], in assay [3], in [4], in assay [5] and in assay [6] was > 100 µM (inactive) in each case. The GI50 in assay [7], in assay [8], in [10], in assay [11], in assay [12] and in [16] was > 100 µM (inactive) throughout. For the same compound, the GI50 in assay [13], in assay [14] and in assay [15] was > 100 µM (inactive) in each case.
On to `CC(C)(C)C(=O)Nc1cccc2oc(-c3ccccc3)cc12`, for which the GI50 in [1] was > 100 µM (inactive); in [2], > 100 µM (inactive); in assay [3] it was > 100 µM (inactive); in assay [4] it was > 100 µM (inactive); in assay [5] it was 49.7 µM (inactive); in assay [7], > 100 µM (inactive). The GI50 in assay [8], in assay [10], in [11], in [12], in [16] and in assay [14] was > 100 µM (inactive) throughout. Moreover, the GI50 in [15] was 26.2 µM (inactive).
For `FC(F)(F)c1ccccc1/C=N/C12CC3CC(CC(C3)C1)C2`, the GI50 in assay [1], in assay [2], in assay [4], in assay [5], in assay [6] and in assay [7] was > 100 µM (inactive) in each case. Moreover, the GI50 in [8], in assay [10], in assay [11], in assay [12], in [16] and in assay [13] was > 100 µM (inactive) throughout. Also, the GI50 in assay [14] was > 100 µM (inactive); in assay [15], 0.908 µM (active).
As for `NC(=S)N/N=C1/CN(c2ccc(Cl)c(Cl)c2)CC(=O)C1c1nc2ccccc2s1` (stereo not given), the GI50 was > 100 µM (inactive) in assay [1]; > 100 µM (inactive) in assay [2]; 66.2 µM (inactive) in [3]; > 100 µM (inactive) in assay [4]; > 100 µM (inactive) in [6]; 45.1 µM (inactive) in assay [7]. The GI50 in assay [8] was > 100 µM (inactive); in [9] it was 36.1 µM (inactive); in assay [10], 67 µM (inactive); in [11], 92.7 µM (inactive); in assay [12] it was 76.7 µM (inactive); in assay [16], > 100 µM (inactive). For the same compound, the GI50 was > 100 µM (inactive) in assay [13], 67.1 µM (inactive) in assay [14] and 38.7 µM (inactive) in assay [15].
Consider `O=S1(=O)c2cc(S(=O)(=O)n3ccnc3)ccc2NC2=NCCCN21`, for which the GI50 in [1] is 32.2 µM (inactive); in [2], 34.2 µM (inactive); in assay [3] it was 21 µM (inactive); in [4], 18.6 µM (inactive); in assay [5], 40.7 µM (inactive); in [6], 37.9 µM (inactive). Moreover, the GI50 is 30.7 µM (inactive) in [7]; 14.2 µM (inactive) in [9]; 20.3 µM (inactive) in assay [10]; 47.4 µM (inactive) in assay [11]; 27.2 µM (inactive) in assay [12]; 61 µM (inactive) in [13]. Also, the GI50 in assay [14] was 21.3 µM (inactive); in assay [15], 31 µM (inactive).
Consider `COc1cccc(N2C(=O)/C(=C/c3ccc(N(CCC#N)CCC#N)cc3)N=C2c2cc([N+](=O)[O-])ccc2Cl)c1`, for which the GI50 in assay [1] was 30.5 µM (inactive); in assay [3], 48.8 µM (inactive); in [4], 14.7 µM (inactive); in [5], 22.3 µM (inactive); in assay [6], > 100 µM (inactive); in [7] it was 89.1 µM (inactive). For the same compound, the GI50 in assay [8] was 43.5 µM (inactive); in assay [9] it was 55.8 µM (inactive); in assay [10], 35.6 µM (inactive); in assay [11] it was > 100 µM (inactive); in assay [12], 78.7 µM (inactive); in [16], > 100 µM (inactive). Further, the GI50 in [14] is 59.2 µM (inactive); in assay [15], 82 µM (inactive).
For the compound `CCOC(=O)C1C2CCC(C2)C1(CCl)C(=O)OCC` (stereo not given), the GI50 in assay [1], in assay [2], in [3], in [4], in assay [5] and in [6] was > 100 µM (inactive) in each case. Besides, the GI50 in [7], in [8], in assay [10], in assay [11], in [12] and in assay [13] was > 100 µM (inactive) each time. Also, the GI50 in [14] and in assay [15] was > 100 µM (inactive) each time.
With `COC1=CC(=O)C(Br)=CC1=O`, the GI50 in [1] is 18.6 µM (inactive); in assay [2], > 100 µM (inactive); in assay [3] it was 2.54 µM (inactive); in [4], 16.7 µM (inactive); in assay [5] it was 3.3 µM (inactive); in [6], 21 µM (inactive). For the same compound, the GI50 in [7] was 18.9 µM (inactive); in assay [8], > 100 µM (inactive); in assay [9], 8.69 µM (inactive); in assay [11] it was 17.9 µM (inactive); in assay [12], 26.9 µM (inactive); in [16] it was 20.5 µM (inactive). Besides, the values for the GI50 in assay [13] and in assay [15] were 19.9 µM (inactive) and 17.5 µM (inactive), respectively.
Take `C=CC(C)(C)[C@@]12CC3C(=O)N[C@@H](Cc4ccccc4)C(=O)N3[C@@H]1N(C(C)=O)c1ccccc12` (stereo not given in full): the GI50 in assay [1] was > 100 µM (inactive); in [2] it was 74.1 µM (inactive); in assay [3] it was 57.1 µM (inactive); in [4] it was 36.5 µM (inactive); in [5], 27.4 µM (inactive); in assay [6] it was > 100 µM (inactive). The GI50 in assay [7] was > 100 µM (inactive); in assay [8] it was 48.8 µM (inactive); in assay [10], 48.6 µM (inactive); in assay [11] it was 31.8 µM (inactive); in assay [12] it was 73.5 µM (inactive); in [16], > 100 µM (inactive). For the same compound, the GI50 is > 100 µM (inactive) in [13], 93.3 µM (inactive) in assay [14] and 54.8 µM (inactive) in [15].
Turning to `CCOC(=O)C[C@@]12CCCN[C@]1(C)CCc1ccccc12`, the GI50 in assay [1], in [2], in assay [3], in assay [5], in assay [6] and in assay [7] was > 100 µM (inactive) in each case. Also, the GI50 in assay [8], in [9], in assay [10], in [11], in [12] and in assay [16] was > 100 µM (inactive) each time. Further, the GI50 in [13], in [14] and in assay [15] was > 100 µM (inactive) throughout.
Regarding `CCN(CC)CCSc1c2ccccc2nc2c(OC)ccc(OC)c12`, the GI50 was 4.13 µM (inactive) in [1]; 29.3 µM (inactive) in [2]; 2.13 µM (inactive) in [3]; 2.72 µM (inactive) in assay [4]; 1.65 µM (inactive) in assay [5]; > 41.2 µM (inactive) in assay [6]. The GI50 in [7] is 14.6 µM (inactive); in [8], 10.8 µM (inactive); in assay [9] it was 3.26 µM (inactive); in [11] it was 10.7 µM (inactive); in assay [12], 2.43 µM (inactive); in assay [13] it was 4.97 µM (inactive). Moreover, the GI50 in assay [14] is 30.3 µM (inactive); in assay [15], 12.8 µM (inactive).
Regarding `CC1=C(C#N)C(=O)CC(c2ccc(Cl)cc2)N(C)N1` (stereo not given), the GI50 in assay [1], in [2], in assay [5], in [6], in [7] and in assay [8] was > 100 µM (inactive) each time. Besides, the GI50 in [9], in [11], in [16], in assay [13] and in [14] was > 100 µM (inactive) each time.
